In US10280170B2, “Substituted 4,5,6,7-tetrahydro-pyrazolo[1,5-a]pyrazine derivatives and 5,6,7,8-tetrahydro-4H-pyrazolo[1,5-a][1,4]diazepine derivatives as Ros1 inhibitors” (Janssen Pharmaceutica NV, priority 2014, dated 2019):
Where “and” joins values, the source holds several entries; their conditions need not be identical. Equal values may be shown once.

What was measured:
Ros1 enzyme = target: T1, Ros1 enzyme (Homo sapiens, UniProt P08922); test: Ros1 enzymatic assay; assay type: biochemical; conditions: Ros1 enzymatic assay; read-out: ROS1 pIC50 (converted)
T1 construct: 0.5 μg/ml Ros1 enzyme
T1 sequence (P08922 28-2347): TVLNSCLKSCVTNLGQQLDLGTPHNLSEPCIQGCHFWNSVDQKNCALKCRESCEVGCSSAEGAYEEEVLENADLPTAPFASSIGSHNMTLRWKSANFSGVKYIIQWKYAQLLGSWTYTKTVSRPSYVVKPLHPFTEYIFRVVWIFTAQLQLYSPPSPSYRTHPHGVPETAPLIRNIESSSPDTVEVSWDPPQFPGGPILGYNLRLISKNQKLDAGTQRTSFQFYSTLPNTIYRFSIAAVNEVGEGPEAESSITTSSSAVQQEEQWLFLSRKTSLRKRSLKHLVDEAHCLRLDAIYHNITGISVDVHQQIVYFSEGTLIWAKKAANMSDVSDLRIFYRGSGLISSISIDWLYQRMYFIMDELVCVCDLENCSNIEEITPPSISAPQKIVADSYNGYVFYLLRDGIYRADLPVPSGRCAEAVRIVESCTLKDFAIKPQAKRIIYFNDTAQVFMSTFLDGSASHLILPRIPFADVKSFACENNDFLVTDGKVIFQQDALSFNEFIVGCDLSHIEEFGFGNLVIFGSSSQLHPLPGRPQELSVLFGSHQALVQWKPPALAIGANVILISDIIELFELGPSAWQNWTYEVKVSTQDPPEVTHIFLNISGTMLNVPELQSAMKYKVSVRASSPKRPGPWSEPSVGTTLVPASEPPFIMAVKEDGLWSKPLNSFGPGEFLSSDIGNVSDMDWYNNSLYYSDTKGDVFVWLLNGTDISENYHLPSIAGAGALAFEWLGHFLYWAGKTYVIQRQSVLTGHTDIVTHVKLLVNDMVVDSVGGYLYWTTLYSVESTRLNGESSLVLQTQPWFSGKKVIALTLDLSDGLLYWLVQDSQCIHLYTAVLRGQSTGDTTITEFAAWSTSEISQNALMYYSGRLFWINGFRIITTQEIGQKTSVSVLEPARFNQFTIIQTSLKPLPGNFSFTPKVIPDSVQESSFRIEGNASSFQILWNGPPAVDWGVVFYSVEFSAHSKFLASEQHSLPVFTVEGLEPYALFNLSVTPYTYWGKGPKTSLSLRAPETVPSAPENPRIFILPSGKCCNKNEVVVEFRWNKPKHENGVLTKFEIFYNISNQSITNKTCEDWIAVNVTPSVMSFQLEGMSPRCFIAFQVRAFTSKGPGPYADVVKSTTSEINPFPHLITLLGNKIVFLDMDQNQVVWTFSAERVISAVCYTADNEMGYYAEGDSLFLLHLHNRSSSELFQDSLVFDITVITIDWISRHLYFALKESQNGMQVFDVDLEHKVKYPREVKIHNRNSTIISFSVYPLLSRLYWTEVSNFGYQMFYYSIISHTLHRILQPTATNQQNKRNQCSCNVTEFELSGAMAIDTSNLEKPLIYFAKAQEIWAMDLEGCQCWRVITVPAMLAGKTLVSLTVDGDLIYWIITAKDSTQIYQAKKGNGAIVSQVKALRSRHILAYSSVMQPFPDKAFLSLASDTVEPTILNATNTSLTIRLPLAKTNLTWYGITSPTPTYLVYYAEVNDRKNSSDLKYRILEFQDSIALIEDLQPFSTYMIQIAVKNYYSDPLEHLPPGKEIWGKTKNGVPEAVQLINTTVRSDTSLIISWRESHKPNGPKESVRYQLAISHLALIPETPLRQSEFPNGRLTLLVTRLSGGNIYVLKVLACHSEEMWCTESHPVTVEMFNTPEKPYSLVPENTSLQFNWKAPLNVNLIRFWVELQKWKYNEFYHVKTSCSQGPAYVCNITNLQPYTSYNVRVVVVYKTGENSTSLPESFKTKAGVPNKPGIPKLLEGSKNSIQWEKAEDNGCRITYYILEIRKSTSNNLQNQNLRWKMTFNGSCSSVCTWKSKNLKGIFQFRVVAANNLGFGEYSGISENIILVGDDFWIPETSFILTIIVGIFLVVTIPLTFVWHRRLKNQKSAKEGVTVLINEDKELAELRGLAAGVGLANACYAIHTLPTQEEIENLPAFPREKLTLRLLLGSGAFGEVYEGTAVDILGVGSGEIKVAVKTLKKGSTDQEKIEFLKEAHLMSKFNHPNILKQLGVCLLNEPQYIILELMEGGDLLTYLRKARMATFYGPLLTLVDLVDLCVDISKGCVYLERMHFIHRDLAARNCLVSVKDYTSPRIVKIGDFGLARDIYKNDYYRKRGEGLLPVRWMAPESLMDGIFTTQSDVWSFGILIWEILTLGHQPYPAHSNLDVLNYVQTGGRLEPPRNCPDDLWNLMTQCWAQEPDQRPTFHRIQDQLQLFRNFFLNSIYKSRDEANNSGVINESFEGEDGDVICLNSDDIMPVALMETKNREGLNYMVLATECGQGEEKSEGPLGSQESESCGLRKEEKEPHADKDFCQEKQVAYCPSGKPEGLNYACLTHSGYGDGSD
Summary of the method: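 Radiometric proximity read-out: 33P incorporated into IRS-Tide captured on streptavidin imaging beads and imaged on LEADseeker. Phosphorylation ran 120 min at RT with 20 μM ATP (substrate-mix level) in Tris pH7.5/MgCl2/EGTA/Tween buffer; EDTA stop.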

[1] = target: T2, Ba/F3 cells containing Ros1 wild-type protein (Homo sapiens, UniProt P08922, cells depend on it, form not given); test: Ba/F3-Ros1 cell proliferation assay, wild-type Ros1; assay type: cell-based, murine; conditions: without IL-3
T2 construct: The background only speaks of 'a number of different unrelated proteins' and names SLC34A2-ROS1 for HCC78 cells
T2 sequence (P08922 whole entry, stated change not applied): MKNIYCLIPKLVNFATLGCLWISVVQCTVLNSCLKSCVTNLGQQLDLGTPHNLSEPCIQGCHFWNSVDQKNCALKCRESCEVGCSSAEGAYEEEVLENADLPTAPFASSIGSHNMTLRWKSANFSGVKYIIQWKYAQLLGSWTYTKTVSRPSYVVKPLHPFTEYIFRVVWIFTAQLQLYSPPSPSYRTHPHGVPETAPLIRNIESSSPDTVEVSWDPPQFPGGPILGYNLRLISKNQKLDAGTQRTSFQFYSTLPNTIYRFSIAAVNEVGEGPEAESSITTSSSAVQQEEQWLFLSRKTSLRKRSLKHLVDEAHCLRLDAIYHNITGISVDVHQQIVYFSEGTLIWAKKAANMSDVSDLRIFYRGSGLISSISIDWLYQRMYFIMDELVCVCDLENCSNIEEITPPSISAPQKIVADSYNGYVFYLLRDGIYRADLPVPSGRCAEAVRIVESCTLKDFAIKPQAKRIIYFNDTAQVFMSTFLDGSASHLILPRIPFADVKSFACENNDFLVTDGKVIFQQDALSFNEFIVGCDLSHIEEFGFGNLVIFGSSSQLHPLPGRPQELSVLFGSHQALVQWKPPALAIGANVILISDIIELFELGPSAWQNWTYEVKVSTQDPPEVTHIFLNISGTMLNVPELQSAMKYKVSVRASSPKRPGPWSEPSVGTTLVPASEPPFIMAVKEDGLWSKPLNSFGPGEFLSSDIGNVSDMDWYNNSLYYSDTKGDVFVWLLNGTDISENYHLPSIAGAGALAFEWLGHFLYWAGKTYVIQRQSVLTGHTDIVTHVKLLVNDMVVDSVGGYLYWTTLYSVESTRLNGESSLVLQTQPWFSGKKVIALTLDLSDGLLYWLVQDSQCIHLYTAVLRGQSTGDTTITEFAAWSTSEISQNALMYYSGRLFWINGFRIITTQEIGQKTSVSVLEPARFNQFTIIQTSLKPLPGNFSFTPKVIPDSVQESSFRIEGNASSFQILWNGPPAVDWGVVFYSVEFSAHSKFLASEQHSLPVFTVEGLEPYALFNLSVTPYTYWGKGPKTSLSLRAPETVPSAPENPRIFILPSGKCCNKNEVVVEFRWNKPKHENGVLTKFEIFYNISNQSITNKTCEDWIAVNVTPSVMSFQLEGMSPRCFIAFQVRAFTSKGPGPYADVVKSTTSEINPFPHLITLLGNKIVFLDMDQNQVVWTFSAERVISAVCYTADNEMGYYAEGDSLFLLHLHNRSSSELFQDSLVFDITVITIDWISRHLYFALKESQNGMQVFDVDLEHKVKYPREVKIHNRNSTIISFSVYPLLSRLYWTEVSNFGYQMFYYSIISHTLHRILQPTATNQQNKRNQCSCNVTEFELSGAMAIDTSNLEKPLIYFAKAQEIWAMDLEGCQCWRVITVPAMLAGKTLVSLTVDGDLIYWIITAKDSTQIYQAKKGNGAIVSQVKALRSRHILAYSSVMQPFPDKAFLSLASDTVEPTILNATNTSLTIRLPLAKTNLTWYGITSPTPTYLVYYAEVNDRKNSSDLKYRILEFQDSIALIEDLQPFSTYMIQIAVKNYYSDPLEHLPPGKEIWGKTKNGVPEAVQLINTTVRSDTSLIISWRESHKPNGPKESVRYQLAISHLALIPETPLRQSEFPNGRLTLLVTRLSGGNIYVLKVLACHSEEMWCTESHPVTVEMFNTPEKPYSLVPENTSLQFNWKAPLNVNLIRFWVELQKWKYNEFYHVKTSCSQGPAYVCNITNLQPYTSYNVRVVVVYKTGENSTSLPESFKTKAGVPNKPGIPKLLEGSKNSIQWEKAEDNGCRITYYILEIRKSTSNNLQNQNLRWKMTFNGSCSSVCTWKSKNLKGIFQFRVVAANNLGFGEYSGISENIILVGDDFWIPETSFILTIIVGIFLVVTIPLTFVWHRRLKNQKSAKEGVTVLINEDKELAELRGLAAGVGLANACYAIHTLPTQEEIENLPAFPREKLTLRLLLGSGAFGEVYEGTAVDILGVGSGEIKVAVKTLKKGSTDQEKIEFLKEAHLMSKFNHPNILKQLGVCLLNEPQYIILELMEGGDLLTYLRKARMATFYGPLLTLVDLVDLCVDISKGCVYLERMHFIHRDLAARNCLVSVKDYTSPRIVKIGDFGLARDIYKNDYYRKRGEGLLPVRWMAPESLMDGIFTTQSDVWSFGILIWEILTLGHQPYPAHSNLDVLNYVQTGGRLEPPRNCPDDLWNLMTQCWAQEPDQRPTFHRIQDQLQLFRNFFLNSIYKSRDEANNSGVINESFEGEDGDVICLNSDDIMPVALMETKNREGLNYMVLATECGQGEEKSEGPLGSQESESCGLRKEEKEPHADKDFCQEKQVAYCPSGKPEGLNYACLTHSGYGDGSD
Summary of the method: (§1)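 Alamar Blue read-out (resazurin, ex. 540 nm, em. 590 nm, 4 h at 37 °C) after 24 h compound exposure of 20000 Ba/F3-Ros1 cells per well. Cells carry WT, gatekeeper L2026M or crizotinib-resistant G2032R Ros1; medium RPMI-1640, 10% FBS, 2 mM L-Glutamine.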

[2] = target: Ba/F3 cells containing Ros1 with a mutation at the gatekeeper residue (L2026M) (Homo sapiens, UniProt P08922, L2026M, cells depend on it, form not given); test: Ba/F3-Ros1 cell proliferation assay, L2026M gatekeeper mutant; assay type: cell-based, murine; conditions: without IL-3
Chain of Ba/F3 cells containing Ros1 with a mutation at the gatekeeper residue (L2026M) (P08922 whole entry L2026M, form open): as the sequence (P08922 whole entry, stated change not applied) above, with L2026M counted along it
Summary of the method: as §1

[3] = target: Ba/F3 cells containing Ros1 with G2032R mutation (Homo sapiens, UniProt P08922, G2032R, cells depend on it, form not given); test: Ba/F3-Ros1 cell proliferation assay, G2032R crizotinib-resistance mutant; assay type: cell-based, murine; conditions: without IL-3
Chain of Ba/F3 cells containing Ros1 with G2032R mutation (P08922 whole entry G2032R, form open): as the sequence (P08922 whole entry, stated change not applied) above, with G2032R counted along it
Experimental: Ba/F3-Ros1 Cell Proliferation Assay
This assay was carried out with Ba/F3 cells containing three different versions of Ros1: the wild-type protein, protein with a mutation at the gatekeeper residue (L2026M), and protein with a mutation identified in a tumor from a patient that became resistant to crizotinib (Xalkori®) treatment (G2032R). Compounds were solubilized in 100% DMSO (dimethyl sulfoxide) and sprayed into polystyrene, tissue culture treated 384-well plates. A 50 μl volume of cell culture medium (phenol red free RPMI-1640, 10% FBS (fetal bovine serum), 2 mM L-Glutamine) containing 20000 Ba/F3-Ros1 cells was added to each well and the plates were placed in an incubator at 37° C. and 5% CO2. After 24 hours, 10 μl of Alamar Blue solution (0.5 mM K3Fe(CN)6, 0.5 mM K4Fe(CN)6, 0.15 mM Resazurin and 100 mM Phosphate Buffer) was added to the wells, incubated for 4 hours at 37° C. and 5% CO2 before RFU's (Relative Fluorescence Units) (ex. 540 nm., em. 590 nm.) were measured in a fluorescence plate reader.

[4] = test system: HCC78 non-small cell lung cancer cells; test: HCC78 cell proliferation assay; assay type: cell-based; conditions: Homo sapiens, HCC78, 96 h, read-out: HCC-78 PROL pEC50 (converted)
Summary of the method: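 HCC78 NSCLC cells (~1000/well) in RPMI-1640 with 10% FBS were treated 24 h after seeding and exposed to compound for 4 days at 37 °C. Viability was read by MTT, with absorbance at 538 nm after DMSO/glycine solubilization.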

[5] = test system: Ba/F3 tumors containing wild-type Ros1; test: Efficacy study in mice bearing Ba/F3-Ros1 tumors, wild-type Ros1; assay type: in vivo, NMRI nude mice; conditions: oral gavage, 10 days
Experimental: (§2) Efficacy Studies in Mice Bearing Ba/F3-Ros1 Tumors
(§3) Approximately 2×10^6 Ba/F3 cells containing either wild-type, L2026M or G2032R mutant Ros1 were inoculated into the inguinal region of NMRI nude mice. When the resulting tumors reached a size of 250 to 350 mm^3, mice were randomly assigned to the different treatment groups (8 to 12 mice per group). Compounds formulated in 20% cyclodextrin were administered to the mice by oral gavage at various doses for 10-days once (QD) or twice (BID) a day. Tumor sizes were determined by caliper measurement on day 1 prior to treatment and then twice weekly for the duration of the study using the commonly following formula: tumor volume (mm^3)=(a×b^2/2); where ‘a’ represents the length, and ‘b’ the width of the tumor. Treatment/control (T/C) ratios were calculated at the end of the study based on the change in final relative tumor volumes.

[6] = test system: Ba/F3 tumors containing L2026M mutant Ros1; test: Efficacy study in mice bearing Ba/F3-Ros1 tumors, L2026M mutant Ros1; assay type: in vivo, NMRI nude mice; conditions: oral gavage, 10 days
Experimental: as §2, §3

[7] = test system: Ba/F3 tumors containing G2032R mutant Ros1; test: Efficacy study in mice bearing Ba/F3-Ros1 tumors, G2032R mutant Ros1; assay type: in vivo, NMRI nude mice; conditions: oral gavage, 10 days
Experimental: as §2, §3

Row | Compound | IC50 (Ros1 enzyme) [nM] | BaF3-ROS1-IL3 pIC50 [1] | Ba/F3 Ros1 L2026M (-IL-3) pIC50 [2] | Ba/3 Ros1 G2032R (-IL-3) pIC50 [3] | EC50 [4] [nM] | T/C (%) ([5]; 6.25 mg/kg BID) | T/C (%) ([5]; 12.5 mg/kg QD) | T/C (%) ([5]; 25 mg/kg QD) | T/C (%) ([6]; 12.5 mg/kg BID) | T/C (%) ([7]; 12.5 mg/kg BID) | T/C (%) ([7]; 25 mg/kg BID) | further results
1 | CC(C)c1ccc(COc2ccc(-c3c(-c4ccncc4)nn4c3C(=O)NCC4)cc2)cc1 [Compound 1] | 25.1 | 7.6 | 7.3 | 7.0 | 126 | 50 | 12 | −27 | 23 | 43 | 7 | T/C (%) ([5]; 1.56 mg/kg QD): 88%; T/C (%) ([5]; 3.125 mg/kg QD): 75%; T/C (%) ([5]; 6.25 mg/kg QD): 35%; T/C (%) ([5]; 12.5 mg/kg BID): 20%; T/C (%) ([5]; 25 mg/kg BID): −13%; T/C (%) ([6]; 6.25 mg/kg BID): 94%; T/C (%) ([6]; 25 mg/kg QD): 42%; T/C (%) ([7]; 6.25 mg/kg BID): 79%
2 | CC(C)c1ccc(COc2ccc(-c3c(-c4ccncc4)nn4c3C(=O)N(CCO)CC4)cc2)cc1 [Compound 2] | 20 | 7.6 | 7.4 | 7.1 | 126 | 67 | 61 | 46 | 82 | 89 | 55 | T/C (%) ([5]; 3.125 mg/kg BID): 91%; T/C (%) ([5]; 12.5 mg/kg BID, 12.5 mg/kg): 47% and 51%; T/C (%) ([5]; 50 mg/kg QD): 20%; T/C (%) ([5]; 100 mg/kg BID): −22%; T/C (%) ([6]; 25 mg/kg BID): 50%; T/C (%) ([6]; 50 mg/kg BID): 28%; T/C (%) ([6]; 100 mg/kg BID): −32%; T/C (%) ([7]; 50 mg/kg BID): 18%; T/C (%) ([7]; 100 mg/kg BID): −16%
